Experimental data reported in patent US20140343095A1, “Methods of Diagnosing and Treating Multiple Sclerosis” (The Brigham and Women's Hospital, Inc., priority 2009, published 2014).
Entries after “also recorded” stand apart in the source; their conditions may differ.

Columns and labels:
[1] = tested on: NOD mice (experimental SPMS); assay: NOD experimental model of SPMS (MOG35-55 EAE), clinical score and spinal cord histology; type: in vivo, mouse
Procedure: 2A, a line graph showing the results of AIQ treatment when experimental SPMS was induced in ten-week old NOD mice by subcutaneous immunization with […] of MOG35-55 in CFA and Pertussis toxin (150 ng per mouse) given at the time of immunization and 48 hours later. AIQ (3 mg/Kg body weight) was given daily beginning on day 0, n=10 animals per group. A control group was treated with PBS. 2B, a pair of line graphs showing the results of regression analysis of EAE progression (top panel—acute phase, bottom panel—chronic phase). 2C, four images from histopathological analysis of EAE in NOD mice.
This experimental model of SPMS was used to analyze the levels of 15-oxysterols at peak of the acute EAE attack (day 18) and during the progressive phase of EAE (day 55).
150 ng/mouse of pertussis toxin (Sigma) were administered intraperitoneally on days 0 and 2. Clinical signs of EAE were assessed according to the following score: 0, no signs of disease; 1, loss of tone in the tail; 2, hind limb paresis; 3, hind limb paralysis; 4, tetraplegia; 5, moribund.
Image analysis was performed using the software ImageJ (NIH).

[2] = tested on: microglia, macrophages or astrocytes; assay: TNF-α, CCL-2 and NO secretion by microglia, macrophages or astrocytes; type: cell-based, mouse; details: co-incubation with 15-HC
Procedure: FIGS. 4A-D show the results of activation of microglia, macrophages and astrocytes by 15-HC. 4A, a bar graph showing PARP-1 activity in a cell-free system where recombinant PARP-1 was incubated with DNA which as been pretreated with 15-HC or 7-KC. Non-pretreated DNA was used as a negative control and ssb-DNA as a positive control. Data is shown as Mean±SEM. 4B, a pair of bar graphs showing PARP-1 activity measured in microglia, macrophages or astrocytes incubated with 15-HC or 7-KC. The data is shown as the fold of change between vehicle and lipid-treated cells (Mean±SEM). 4C, a pair of bar graphs showing percent inhibition of PARP-1 activity in microglia, macrophages or astrocytes activated with 15-HC or 7-KC […] in the presence of 5-AIQ. 4D, a table showing levels of TNF-α, CCL-2 and NO secretion by 15-HC or 7-KC treated microglia, macrophages or astrocytes (Mean±SEM).
The effect of 15-HC on the activity of cellular PARP-1 was then investigated. […] Thus, 15-HC activates microglia, macrophages and astrocytes through a PARP-1-dependent mechanism.

PARP-1 [3] = molecular target: T1, PARP-1 (Mus musculus, UniProt P11103); assay: Cellular PARP-1 activity in microglia, macrophages or astrocytes; type: cell-based; parameters: host or cells: C8B4 microglia, C8-D1A astrocytes, Raw 264.7 macrophages
T1 sequence (P11103 whole entry): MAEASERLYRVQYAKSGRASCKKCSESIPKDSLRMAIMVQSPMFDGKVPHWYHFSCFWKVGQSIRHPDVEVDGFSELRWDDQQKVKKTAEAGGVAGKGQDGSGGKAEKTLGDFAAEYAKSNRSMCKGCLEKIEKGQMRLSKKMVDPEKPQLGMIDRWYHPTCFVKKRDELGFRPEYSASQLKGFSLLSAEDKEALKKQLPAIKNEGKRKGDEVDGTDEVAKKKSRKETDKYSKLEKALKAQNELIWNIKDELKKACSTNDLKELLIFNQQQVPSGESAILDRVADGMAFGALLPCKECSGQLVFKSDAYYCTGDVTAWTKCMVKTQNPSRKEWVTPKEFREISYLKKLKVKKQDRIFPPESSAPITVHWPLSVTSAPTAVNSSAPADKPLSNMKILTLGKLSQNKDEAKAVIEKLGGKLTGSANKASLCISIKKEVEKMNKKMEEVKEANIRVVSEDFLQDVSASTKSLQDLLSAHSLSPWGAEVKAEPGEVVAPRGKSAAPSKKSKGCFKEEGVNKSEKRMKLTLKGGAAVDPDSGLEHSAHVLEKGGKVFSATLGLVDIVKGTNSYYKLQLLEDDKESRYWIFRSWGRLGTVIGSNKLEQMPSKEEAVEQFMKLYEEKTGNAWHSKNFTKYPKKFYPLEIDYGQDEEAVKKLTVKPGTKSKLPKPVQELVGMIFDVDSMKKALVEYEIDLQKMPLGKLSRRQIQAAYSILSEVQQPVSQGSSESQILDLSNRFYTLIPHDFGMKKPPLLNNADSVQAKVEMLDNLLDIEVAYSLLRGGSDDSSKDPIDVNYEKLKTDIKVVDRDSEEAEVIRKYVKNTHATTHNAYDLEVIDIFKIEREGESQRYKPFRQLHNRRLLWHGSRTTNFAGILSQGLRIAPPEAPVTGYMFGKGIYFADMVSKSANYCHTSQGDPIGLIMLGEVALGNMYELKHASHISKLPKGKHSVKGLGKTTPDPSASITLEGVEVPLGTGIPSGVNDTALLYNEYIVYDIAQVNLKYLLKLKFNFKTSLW
Procedure: 5A, a bar graph showing the time course of microglial PARP-1 activation by 15-oxysterols or 7-KC. PARP-1 activity is shown as Mean±SEM. […] (Mean±SEM) 5C, a bar graph showing activation of microglial PARP-1 by 15-HC in the presence of kinase inhibitors (Mean±SEM).
6A, a set of three bar graphs showing PARP-1 activity in microglia, macrophages or astrocytes activated with 15-HC in the presence of blocking antibodies to TLR2 or TLR4, or isotype controls (Mean±SEM).
PARP-1 activity was measured using PARP HT Universal Colorimetric Kit (Trevigen, MD, USA), following manufacturer instructions.
Cells were cultured with DMEM supplemented with 10% fetal bovine serum, 2 mM L-glutamine, 25 mM HEPES, and 1 mM sodium pyruvate. Cells in logarithmic growth were treated with 1 μg/ml of 15-HC for 1, 5, 15, and 30 minutes in serum-free medium. Blocking antibodies (Ebioscience, San Diego, Calif., USA) were added in some experiments at a final concentration of 10 ug/ml.

PARP-1 [4] = molecular target: T2, PARP-1 (Homo sapiens, UniProt P09874); assay: FACS-based detection of PARP-1 activity (PAR staining) in human monocytes / PBMCs; type: cell-based; parameters: endogenous in cells; host or cells: human PBMCs / monocytes / dendritic cells / T and B cells from healthy controls and MS patients; details: human monocytes activated by 15-HC
Procedure: FIGS. 11A-B are show the results of FACS-based detection of PARP-1 activity. 11A. a set of five histograms showing PAR staining (as detected by FACS) of PBMCs incubated with 15-HC alone, or in combination with AIQ, blocking antibodies to TLR2 (TLR2 BL), or IC control (TLR2 IC). 11B, a line graph showing the correlation of PAR staining as detected by FACS with PARP-1 enzymatic activity detected on PBMCs activated with different concentration of 15-HC.
14A is a set of fifteen histograms showing PAR staining of PBMCs taken from HC (left column), RRMS (center column) or SPMS (right column) patients and unstimulated (top row) or activated with 15-HC alone (second row), or in combination with AIQ (third row), blocking antibodies to TLR2 (fourth row) or IC control (bottom row). 14B is a bar graph showing the mean fluorescence intensity (MFI)±SD of 5 samples/group from the histograms in 14A.
15A is a set of 24 histograms showing PAR staining of PBMCs taken from HC (left column), RRMS (center column) or SPMS (right column) patients and unstimulated (top row) or activated with pgLPS (second row), polyIC (third row), ecLPS (fourth row), flagellin (row 5), imiquimod (row 6), ssRNA (row 7) or CpG (row 8). 15B is a bar graph showing the mean fluorescence intensity (MFI)±SD of 5 samples/group from the histograms in […].
A new FACS-based method was developed to detect PARP-1 activation based on the intracellular detection of the PARP-1 product PAR with specific antibodies. Briefly, the cells were incubated with antibodies to CD16/32 to block unspecific antibody binding, and then stained for surface markers. After washing, the cells were permeabilized with Fix/Perm (BD), and then stained with rabbit anti-PAR antibodies (or control rabbit IgG) for 30′ at 4° C., followed by anti-rabbit PE for 30′ at room temperature. The samples were then analyzed by FACS.
Target sequence in this assay (P09874 whole entry): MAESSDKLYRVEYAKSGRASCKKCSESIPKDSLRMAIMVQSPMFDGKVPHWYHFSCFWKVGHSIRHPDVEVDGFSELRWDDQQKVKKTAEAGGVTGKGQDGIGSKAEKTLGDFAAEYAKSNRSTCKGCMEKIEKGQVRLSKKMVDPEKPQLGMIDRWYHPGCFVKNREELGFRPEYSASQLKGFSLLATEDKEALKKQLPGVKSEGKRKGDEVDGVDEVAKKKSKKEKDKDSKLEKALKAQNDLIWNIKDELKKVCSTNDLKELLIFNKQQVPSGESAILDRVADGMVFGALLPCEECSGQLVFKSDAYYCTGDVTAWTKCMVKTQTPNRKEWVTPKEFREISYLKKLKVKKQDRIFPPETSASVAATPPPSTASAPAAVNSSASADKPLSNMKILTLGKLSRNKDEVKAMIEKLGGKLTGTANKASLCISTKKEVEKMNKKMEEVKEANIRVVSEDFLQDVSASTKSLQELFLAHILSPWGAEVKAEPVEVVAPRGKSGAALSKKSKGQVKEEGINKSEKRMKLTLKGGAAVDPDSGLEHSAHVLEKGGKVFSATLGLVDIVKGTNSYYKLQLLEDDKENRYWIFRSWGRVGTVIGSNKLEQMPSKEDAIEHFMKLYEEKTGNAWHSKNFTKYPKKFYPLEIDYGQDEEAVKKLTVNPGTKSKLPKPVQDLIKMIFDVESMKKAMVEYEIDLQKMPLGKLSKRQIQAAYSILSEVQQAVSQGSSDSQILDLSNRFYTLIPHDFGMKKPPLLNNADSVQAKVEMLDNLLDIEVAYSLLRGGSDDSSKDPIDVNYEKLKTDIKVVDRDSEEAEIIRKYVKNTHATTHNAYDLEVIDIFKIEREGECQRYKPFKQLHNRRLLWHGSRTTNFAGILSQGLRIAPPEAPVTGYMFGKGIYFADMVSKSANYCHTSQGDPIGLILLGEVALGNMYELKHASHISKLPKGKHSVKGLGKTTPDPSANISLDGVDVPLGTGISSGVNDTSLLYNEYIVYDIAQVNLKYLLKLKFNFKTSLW

PARP-1 [5] = molecular target: T1, PARP-1
Procedure: Microglia and astrocyte activation have been linked to the progressive phase of experimental SPMS (Basso et al., J Clin Invest 118, 1532-1543 (2008)), thus the activation of PARP-1 was analyzed in the CNS of NOD mice during the progressive phase of EAE.
Spinal cord tissue samples from MOG-immunized NOD mice with or without AIQ treatment were collected at day 55, fixed in 4% paraformaldehyde, cryoprotected in 20% sucrose, and frozen in OCT. Spinal cord frozen sections were cut at 10 μm and processed for histological analysis, immunohistochemistry, or immunofluorescence. […] For image analysis, 3 or 4 lumbar spinal cord sections were selected according to regional landmarks from 4 different animals per group. Image analysis was performed using the software ImageJ (NIH). For quantification, level of labeling “threshold” was used as a cut-off to determine positive or negative staining Immunofluorescence was performed using anti-Iba-1 (Wako, VA, USA), anti-GFAP (BD Bioscience, MA, USA) and anti PAR (Trevigen, MD, USA)

splenocytes = assay: Adaptive encephalitogenic recall response of splenocytes from treated mice (proliferation, cytokines); type: in vivo, mouse; details: AIQ vs control-treated mice
Procedure: FIG. 7 is a set of eight bar graphs showing that the adaptive encephalitogenic immune response is not affected by the inhibition of PARP-1. Splenocytes prepared from control or AIQ-treated mice were activated in vitro with MOG35-55 (right column) or antibodies to CD3 (left column) and the cytokines levels were tested on the supernatant at 48 hours. Top row, IFN-gamma Second row, IL-17. Third row, IL-10. Bottom row, TGF-beta.
Splenocytes and lymph node cells were cultured in X-VIVO medium and plated at 5×10^5 cells per well in the presence of MOG35-55 for 72 hours. During the last 16 hours, cells were pulsed with 1 μCi of [^3H]-thymidine (PerkinElmer) followed by harvesting on glass fiber filters and analysis of incorporated [^3H]-thymidine in a beta-counter (1450 Microbeta, Trilux; PerkinElmer). Supernatants were collect after 48 h of culture for cytokine measurements by ELISA.

PARP-1 [6] = molecular target: T2, PARP-1; assay: PARP-1 enzymatic activity in human PBMCs (PARP HT Universal Colorimetric Kit); type: cell-based; parameters: endogenous in cells; host or cells: human PBMCs / monocytes / dendritic cells / T and B cells from healthy controls and MS patients; details: healthy controls, 1 ug/ml 15-HC
Procedure: PARP-1 enzymatic activity (10A) and TNFalpha and CCL2 (10B) of PBMCs incubated with 15-HC alone, or in combination with AIQ, blocking antibodies to TLR2 or IC control.
To investigate whether the TLR2/PARP-1 axis is functional in human we activated PBMCs from healthy controls with 15-HC, in the presence or not of PARP-1 or TLR2 inhibitors.
Target sequence in this assay (P09874 whole entry): as above

PARP-1 [7] = molecular target: T2, PARP-1; details: Diestel et al. 2003; cited from earlier work
Target sequence in this assay (P09874 whole entry, species assumed): as the sequence (P09874 whole entry) above

[8] = NOD mice, AIQ 3 mg/Kg body weight daily from day 0, vs PBS
[9] = spinal cord sections, day 55, progressive phase of NOD EAE

Compound	clinical signs of progressive EAE [1, 8]	effect on the acute phase of EAE [1, 8]	axonal loss (Bielschowsky's silver staining) [1, 9]	demyelination (luxol fast blue) [1, 9]	inhibition of 15-HC-induced secretion of NO, CCL-2 and TNF-α [2]	inhibition of PARP-1 activation by 15-HC (PARP-1 [3]; microglia, macrophages or astrocytes activated with 15-HC)	blockade of 15-HC-induced PAR staining (FACS) (PARP-1 [4])	PARP-1 activity in CNS CD11b+ cells (PARP-1 [5]; cells isolated at day 55 from AIQ or control-treated mice)	PARP-1 activation in CNS (PAR staining) (PARP-1 [5]; progressive phase of NOD EAE, data not shown)	proliferative recall response of splenocytes (splenocytes; activation with MOG35-55 or antibodies to CD3)	profile of cytokine secretion of splenocytes (splenocytes; supernatants at 48 h, IFN-gamma, IL-17, IL-10, TGF-beta)	inhibition of 15-HC-induced PARP-1 enzymatic activity in human PBMCs (PARP-1 [6])	incubation time resulting in activation of PARP-1 (PARP-1 [3]; macrophages or microglia)	activation of the nuclear enzyme PARP-1 (PARP-1 [7])
Nc1cccc2c(=O)[nH]ccc12 [AIQ, 5-aminoisoquinolinone]	significant inhibition	little or no effect	significant decrease; also recorded: significantly reduced	significant decrease; also recorded: significantly reduced	could be inhibited	could be inhibited	could be blocked	inhibition	decreased	No statistical differences	no differences	can be inhibited	–	–
CC(C)CCC[C@@H](C)[C@H]1CC[C@H]2[C@@H]3C(=O)C=C4C[C@@H](O)CC[C@]4(C)[C@H]3CC[C@]12C [7-KC, 7-ketocholesterol, reference compound]	–	–	–	–	–	–	–	–	–	–	–	–	longer incubation times were required	activate
